Measured values published in US8975235B2, “Lysophosphatidic acid receptor antagonists” (InterMune, Inc., priority 2011, dated 2015).

Molecular target: Human LPA1 (Homo sapiens, UniProt Q92633)
Experiment: Beta-Arrestin based assay for human LPA1R antagonists (PathHunter)
Format: cell-based
Set-up: host or cells: CHO
Conditions: CHO cells stably expressing ProLink tagged human LPA1R; agonist LPA 0.5 micromolar
Procedure: Beta-Arrestin Based Assays for Human LPA1R Antagonists and Agonists
A CHO cell line stably expressing the ProLink™ tagged human LPA1R was obtained from DiscoverX Inc, Fremont, Calif. In this system, β-Arrestin was fused to an N-terminal deletion mutant of β-galactosidase (termed the enzyme acceptor or EA), the human LPA1R was fused to a smaller (42 amino acids) weakly complementing fragment termed ProLink™. […] Cell handling and assays were performed according to protocols specified in the PathHunter® assays kits (DiscoverX, Fremont, Calif.). Assays were performed in quadruplicate in white 384 well plates. End point luminescence data were plotted and fit to a 4 parameter logistic function to obtain IC50 values. For antagonist assays, an […] concentration of agonist (LPA) equal to 0.5 micromolar was used.

Human LPA1, sequence (Q92633 whole entry): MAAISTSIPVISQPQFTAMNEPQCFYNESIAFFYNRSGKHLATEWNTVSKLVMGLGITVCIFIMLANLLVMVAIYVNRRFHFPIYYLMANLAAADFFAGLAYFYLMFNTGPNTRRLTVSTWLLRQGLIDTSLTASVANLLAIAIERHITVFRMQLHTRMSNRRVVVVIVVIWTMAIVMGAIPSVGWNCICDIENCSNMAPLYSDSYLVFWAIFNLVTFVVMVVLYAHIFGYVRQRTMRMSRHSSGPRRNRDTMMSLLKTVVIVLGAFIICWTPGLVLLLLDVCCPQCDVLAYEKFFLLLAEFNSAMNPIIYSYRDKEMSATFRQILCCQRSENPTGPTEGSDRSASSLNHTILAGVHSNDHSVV

Row | Compound | EC50 [nM]
1 | C[C@@H](OC(=O)Nc1nncn1-c1ccc(-c2ccc(C3(C(=O)O)CC3)cc2)cc1)c1ccccc1Cl [Compound 159] | > 500
2 | Cc1cccc2c(NC(=O)O[C@H](C)c3ccccc3Cl)c(-c3ccc(-c4ccc(C5(C(=O)O)CC5)cc4)cc3)oc12 [Compound 51] | > 500
3 | C[C@@H](OC(=O)Nc1cncn1-c1ccc(-c2ccc(C3(C(=O)O)CC3)cc2)cc1)c1ccccc1Cl [Compound 164] | 50 to 500
4 | Cc1nsc(-c2ccc(-c3ccc(CC(=O)O)c(F)c3)cc2)c1NC(=O)O[C@H](C)c1ccccc1Cl [Compound 196] | 50 to 500
5 | C[C@@H](OC(=O)Nc1cnnn1-c1ccc(-c2ccc(C3(C(=O)O)CC3)cc2)cc1)c1ccccc1 [Compound 66] | 50 to 500
6 | C[C@@H](OC(=O)Nc1c(-c2ccc(-c3ccc(CC(=O)O)cc3)cc2)oc2ccccc12)c1ccccc1Cl [Compound 31] | 50 to 500
7 | Cc1nsc(-c2ccc(-c3ccc(C4(C(=O)O)CC4)cc3)cc2)c1NC(=O)OCc1ccc(F)cc1Cl [Compound 102] | 50 to 500
8 | Cc1nsc(-c2cc(F)c(-c3ccc(C4(C(=O)O)CC4)cc3)cc2Cl)c1NC(=O)O[C@H](C)c1ccccc1Cl [Compound 180] | < 50
9 | Cc1nsc(-c2ccc(-c3ccc(C4(C(=O)O)CC4)cc3)cc2F)c1NC(=O)O[C@H](C)c1ccccc1 [Compound 184] | < 50
10 | Cc1noc(-c2ccc(-c3ccc(C4(C(=O)O)CN(Cc5ccccc5)C4)cc3)cc2)c1NC(=O)O[C@H](C)c1ccccc1Cl [Compound 33] | < 50
11 | CCOC(=O)Cc1ccc(-c2ccc(-c3onc(C)c3NS(=O)(=O)Cc3ccccc3)cc2)cc1 [Compound 15] | > 500
12 | Cc1nc(NC(=O)O[C@H](C)c2ccccc2Cl)n(-c2ccc(-c3ccc(C4(C(=O)O)CC4)cc3)cc2)n1 [Compound 162] | > 500
13 | Cc1cc(-c2snc(C)c2NC(=O)O[C@H](C)c2ccccc2Cl)ccc1-c1ccc(C2(C(=O)O)CC2)cc1 [Compound 116] | < 50
14 | C[C@@H](OC(=O)Nc1c(-c2ccc(-c3ccc(C4(C(=O)O)CC4)cc3)cc2)ncn1C)c1ccccc1 [Compound 169] | 50 to 500
15 | Cc1cc(-c2ccc(C3(C(=O)O)CC3)cc2)ccc1-c1snc(C)c1NC(=O)O[C@H](C)c1ccccc1Cl [Compound 115] | < 50
16 | Cc1nsc(-c2ccc(-c3ccc(C(C(=O)O)c4ccccc4)cc3)cc2)c1NC(=O)O[C@H](C)c1ccccc1Cl (stereo partly drawn) [Compound 69] | < 50
17 | Cc1nsc(-c2ccc3c(c2)CCc2cc(C4(C(=O)O)CC4)ccc2-3)c1NC(=O)O[C@H](C)c1ccccc1 [Compound 245] | < 50
18 | Cc1noc(-c2ccc3c(c2)CCc2cc(C4(C(=O)O)CC4)ccc2-3)c1NC(=O)O[C@H](C)c1ccccc1 [Compound 247] | < 50
19 | Cc1noc(-c2ccc3cc(C#CC4(C(=O)O)CC4)ccc3c2)c1NC(=O)O[C@H](C)c1ccccc1Cl [Compound 141] | < 50
20 | Cc1noc(-c2ccc(-c3ccc(C4(C(=O)O)CC4)cc3)cc2)c1NC(=O)OC1(c2ccccc2)CC1 [Compound 76] | 50 to 500
21 | Cc1noc(-c2ccc(-c3ccc4c(c3)CCC4C(=O)O)cc2)c1NC(=O)O[C@H](C)c1ccccc1Cl (single isomer, unassigned) [Compound 26] | < 50
22 | O=C(Nc1c(-c2ccc(-c3ccc(C4(C(=O)O)CC4)cc3)cc2)oc2cnccc12)OCc1ccccc1 [Compound 151] | 50 to 500
23 | C[C@@H](OC(=O)Nc1c(-c2ccc(-c3ccc(C4(C(=O)O)CC4)cc3)cc2)oc2nc(C(F)(F)F)ccc12)c1ccccc1 [Compound 212] | > 500
24 | Cc1ccc2c(NC(=O)O[C@H](C)c3ccccc3Cl)c(-c3ccc(-c4ccc(C5(C(=O)O)CC5)cc4)cc3)oc2c1 [Compound 52] | > 500

Row | Compound | EC50 [nM]
25 | Cc1nsc(-c2ccc(-c3ccc(C4(C(=O)O)CC4)cc3)cc2)c1NC(=O)OCc1cccc(Cl)c1Cl [Compound 101] | > 500
26 | Cc1nsc(-c2ccc(-c3ccc(C4(C(=O)O)CC4)cc3)c(F)c2)c1NC(=O)O[C@H](C)c1ccccc1Cl [Compound 117] | < 50
27 | C[C@@H](OC(=O)Nc1c(-c2c(F)cc(-c3ccc(C4(C(=O)O)CC4)cc3)cc2F)cnn1C)c1ccccc1 [Compound 205] | < 50
28 | Cc1noc(-c2ccc(-c3ccc4c(c3)CCC4C(=O)O)cc2)c1NC(=O)O[C@H](C)c1ccccc1Cl (stereo partly drawn) [Compound 27] | < 50
29 | Cc1noc(C#Cc2cc3sc(C4(C(=O)O)CC4)cc3s2)c1NC(=O)O[C@H](C)c1ccccc1 [Compound 255] | < 50
30 | C[C@@H](NC(=O)OCc1ccccc1)C(=O)N1CCN(c2ccc(CC(=O)O)cc2)CC1 [Compound 273] | > 500
31 | C[C@@H](OC(=O)Nc1snnc1-c1ccc(-c2ccc(C3(C(=O)O)CC3)cc2)cc1)c1ccccc1 [Compound 174] | 50 to 500
32 | C[C@@H](OC(=O)Nc1cnsc1-c1ccc(-c2ccc(C3(C(=O)O)CC3)cc2)cc1)c1ccccc1 [Compound 114] | < 50
33 | Cc1noc(-c2ccc(-c3ccc(N4CC[C@@H](C(=O)O)C4)cc3)cc2)c1NC(=O)O[C@H](C)c1ccccc1Cl [Compound 134] | 50 to 500
34 | C[C@@H](OC(=O)Nc1ncoc1-c1ccc(-c2ccc(C3(C(=O)O)CC3)cc2)cc1)c1ccccc1 [Compound 143] | 50 to 500
35 | O=C(Nc1nncn1-c1ccc(-c2ccc(C3(C(=O)O)CC3)cc2)cc1)OCc1ccccc1 [Compound 160] | > 500
36 | Cc1noc(-c2ccc(-c3ccc(N4CCC[C@@H](C(=O)O)C4)cc3)cc2)c1NC(=O)O[C@H](C)c1ccccc1Cl [Compound 138] | 50 to 500
37 | O=C(O)Cc1ccc(N2CCN(C(=O)[C@@H](NC(=O)OCc3ccccc3)c3ccccc3)CC2)cc1 [Compound 268] | > 500
38 | Cc1nsc(-c2ccc(-c3ccc(C4(C(=O)O)CCCCC4)cc3)cc2)c1NC(=O)O[C@H](C)c1ccccc1 [Compound 126] | 50 to 500
39 | Cc1cc(-c2ccc(-c3snc(C)c3NC(=O)O[C@H](C)c3ccccc3Cl)cc2)ccc1CC(=O)O [Compound 118] | 50 to 500
40 | Cc1nsc(-c2ccc(-c3ccc(C4(C(=O)O)CC4)cc3)cc2)c1NC(=O)O[C@H](C)C1=C(Cl)CCC1 (single isomer, unassigned) [Compound 216] | < 50
41 | C[C@@H](OC(=O)Nc1c(-c2ccc(-c3ccc(C4(C(=O)O)CC4)cc3)cc2)sc2ccccc12)c1ccccc1Cl [Compound 209] | 50 to 500
42 | Cc1nsc(-c2ccc(-c3ccc(C4(C(=O)O)CC4)cc3)cc2)c1NC(=O)O[C@H](C)c1ccccn1 [Compound 84] | 50 to 500
43 | Cc1noc(-c2ccc(-c3ccc(C(C(=O)O)c4ccccc4)cc3)cc2)c1NC(=O)O[C@H](C)c1ccccc1Cl (single isomer, unassigned) [Compound 16] | < 50
44 | Cc1nsc(-c2ccc(-c3ccc(C4(C(=O)O)CC4)cc3)cc2)c1NC(=O)OCc1cccc(Cl)c1 [Compound 97] | < 50
45 | C[C@@H](OC(=O)Nc1c(-c2cc(Cl)c(-c3ccc(C4(C(=O)O)CC4)cc3)cc2F)cnn1C)c1ccccc1Cl [Compound 202] | < 50
46 | C[C@@H](OC(=O)Nc1ncoc1-c1ccc(-c2ccc(C3(C(=O)O)CC3)cc2)cc1)c1ccccc1Cl [Compound 144] | < 50
47 | Cc1nsc(-c2ccc(-c3ccc(C4(C(=O)O)CC4)cc3)cc2)c1NC(=O)OC(C)C [Compound 95] | > 500
48 | Cc1noc(-c2ccc3c(c2)CCc2cc(C4(C(=O)O)CC4)ccc2-3)c1NC(=O)O[C@H](C)c1ccccc1Cl [Compound 248] | < 50
